Test results taken from patent US20100093542A1, “HERBICIDE COMBINATION COMPRISING DIMETHOXYTRIAZINYL SUBSTITUTED DIFLUOROMETHANESULFONYLANILIDES” (BAYER CORPSCIENCE AG, priority 2008, published 2010).
Read-outs that look alike come from different tables or passages of the source.

Columns and labels:
Test in all cases: Post-emergence action against weeds, greenhouse pot test, visual scoring
Type in all cases: in vivo
[1] = system: Pharbitis purpurea (PHBPU); conditions: Ipomoea purpurea, read-out: % activity found; for inhibition at 4 g/ha / inhibition at 12 g/ha: PHBPU; for inhibition at 4 g/ha: A-1 4 g of ai/ha; for inhibition at 12 g/ha: A-1 12 g of ai/ha
Method: (§1) Seeds or rhizome pieces of mono- and dicotyledonous harmful and useful plants were placed in peat pots (diameter 4 cm) filled with sandy loam and then covered with soil. The pots were kept in a greenhouse under optimum conditions. In addition, harmful plants encountered in paddy rice cultivation were cultivated in pots with a water level 2 cm above the soil surface.
(§2) About three weeks after the start of the cultivation, the test plants were treated at the 2- to 3-leaf stage. The herbicides, formulated as powder or liquid concentrates, were, either alone or in the combinations according to the invention, sprayed in various dosages on to the green parts of the plants using an application rate of 600 l of water/ha (converted). For further cultivation of the plants, the pots were then again kept under optimum conditions in a greenhouse.
(§3) The visual scoring of the herbicidal effects was carried out in intervals up to 21 days after the treatment. Scoring was carried out in percent in comparison to the untreated control plants. 0%=no herbicidal activity, 100%=complete herbicidal activity=complete kill.
(§4) The percentages from the treatments with the herbicides alone (=individual application) and with the combinations according to the invention (=mixtures) were employed to calculate interactions using the method of Colby. When the observed efficacies of the mixtures exceed the formal sum of the values of the tests with individual applications, they also exceed the expected value according to Colby, which is calculated using the formula below (cf. S. R. Colby; in Weeds 15 (1967) pp. 20 to 22):
(§5) Here: • A, B=activity of components A and B in percent at a dosage of a and b g of ai/ha (=gramm of active substance per hectare), respectively. • E=expected value in % at a dosage of a+b g of ai/ha.

[2] = system: Matricaria inodora (MATIN); conditions: Tripleurospermum inodorum, read-out: % activity found
Method: as §1, §2, §3, §4, §5

[3] = system: Abuthilon theophrasti (ABUTH); conditions: Abutilon theophrasti, 240 h, read-out: % activity found
Method: as §1, §2, §3, §4, §5

[4] = system: Amaranthus retroflexus (AMARE); conditions: read-out: % activity found; for inhibition at 12 g/ha: A-1 12 g of ai/ha
Method: as §1, §2, §3, §4, §5

Viola tricolor (VIOTR) = conditions: read-out: % activity found
Method: as §1, §2, §3, §4, §5

[5] = system: Fallopia (ex Polygonum) convolvulus (POLCO); conditions: read-out: % activity found
Method: as §1, §2, §3, §4, §5

[6] = system: Alopecurus myosuroides (ALOMY); conditions: 504 h, read-out: % activity found
Method: as §1, §2, §3, §4, §5

Avena fatua (AVEFA) = conditions: read-out: % activity found; for inhibition at 30 g/ha / inhibition at 90 g/ha: AVEFA
Method: as §1, §2, §3, §4, §5

[7] = system: Lolium multiflorum (LOLMU); conditions: read-out: % activity found
Method: as §1, §2, §3, §4, §5

Zea mays (ZEAMX) = conditions: read-out: % activity found; for inhibition at 30 g/ha / inhibition at 90 g/ha: ZEAMX
Method: as §1, §2, §3, §4, §5

Setaria viridis (SETVI) = conditions: 504 h, read-out: % activity found
Method: as §1, §2, §3, §4, §5

[8] = system: Triticum aestivum (TRZAS); conditions: read-out: % activity found
Method: as §1, §2, §3, §4, §5

Oryza sativa (ORYSA) = conditions: read-out: % activity found; for inhibition at 90 g/ha: ORYSA, B3-3 90 g of ai/ha
Method: as §1, §2, §3, §4, §5

[9] = system: Cyperus esculentus (CYPES); conditions: 504 h, read-out: % activity found
Method: as §1, §2, §3, §4, §5

[10] = 240 h, 10 DAT, B3-1 30 g of ai/ha
[11] = 240 h, 10 DAT, B3-1 90 g of ai/ha
[12] = 504 h, 21 DAT, B3-3 30 g of ai/ha
[13] = 504 h, 21 DAT, B3-3 90 g of ai/ha

COc1nc(OC)nc(C(=O)c2cccc(F)c2N(C)S(=O)(=O)C(F)F)n1 [A-1]
inhibition at 4 g/ha ([1]; 240 h, 10 DAT): 60% | inhibition at 12 g/ha ([1]; 240 h, 10 DAT): 60% | inhibition at 4 g/ha ([1]; 504 h, 21 DAT): 60% | inhibition at 12 g/ha ([1]; 504 h, 21 DAT): 65% | inhibition at 4 g/ha ([2]; 240 h, MATIN, 10 DAT, A-1 4 g of ai/ha): 60% | inhibition at 4 g/ha ([3]; ABUTH, 10 DAT, A-1 4 g of ai/ha): 70% | inhibition at 12 g/ha ([3]; ABUTH, 10 DAT, A-1 12 g of ai/ha): 70% | inhibition at 12 g/ha ([4]; 240 h, AMARE, 10 DAT): 70% | inhibition at 4 g/ha ([4]; 504 h, AMARE, 21 DAT, A-1 4 g of ai/ha): 70% | inhibition at 12 g/ha ([4]; 504 h, AMARE, 21 DAT): 75% | inhibition at 12 g/ha (Viola tricolor (VIOTR); 240 h, VIOTR, 10 DAT, A-1 12 g of ai/ha): 20% | inhibition at 4 g/ha ([5]; 240 h, POLCO, 10 DAT, A-1 4 g of ai/ha): 70% | inhibition at 12 g/ha ([5]; 240 h, POLCO, 10 DAT, A-1 12 g of ai/ha): 70%

CS(=O)(=O)c1ccc(C(=O)C2C(=O)CCCC2=O)c(Cl)c1 [B3-2, 2-[2-chloro-4-(methylsulfonyl)benzoyl]-1,3-cyclohexanedione]
inhibition at 70 g/ha [6]: 0% | inhibition at 210 g/ha [6]: 20% | inhibition at 70 g/ha (Avena fatua (AVEFA); 240 h): 0% | inhibition at 70 g/ha (Avena fatua (AVEFA); 504 h): 0% | inhibition at 210 g/ha (Avena fatua (AVEFA); 504 h): 0% | inhibition at 70 g/ha ([7]; 504 h): 0% | inhibition at 70 g/ha (Zea mays (ZEAMX); 240 h): 0% | inhibition at 210 g/ha (Zea mays (ZEAMX); 240 h): 0% | inhibition at 70 g/ha (Zea mays (ZEAMX); 504 h): 0% | inhibition at 210 g/ha (Zea mays (ZEAMX); 504 h): 0% | inhibition at 70 g/ha (Setaria viridis (SETVI)): 0% | inhibition at 210 g/ha (Setaria viridis (SETVI)): 20%

CS(=O)(=O)c1ccc(C(=O)C2C(=O)CCCC2=O)c([N+](=O)[O-])c1 [B3-1, 2-[4-(methylsulfonyl)-2-nitrobenzoyl]-1,3-cyclohexanedione]
inhibition at 90 g/ha ([8]; 504 h, TRZAS, 21 DAT, B3-1 90 g of ai/ha): 30% | inhibition at 30 g/ha ([6]; ALOMY, 21 DAT, B3-1 30 g of ai/ha): 0% | inhibition at 90 g/ha ([6]; ALOMY, 21 DAT, B3-1 90 g of ai/ha): 30% | inhibition at 30 g/ha (Avena fatua (AVEFA); [10]): 0% | inhibition at 90 g/ha (Avena fatua (AVEFA); [11]): 0% | inhibition at 30 g/ha (Avena fatua (AVEFA); 504 h, 21 DAT, B3-1 30 g of ai/ha): 0% | inhibition at 90 g/ha (Avena fatua (AVEFA); 504 h, 21 DAT, B3-1 90 g of ai/ha): 0% | inhibition at 30 g/ha ([7]; 240 h, LOLMU, 10 DAT, B3-1 30 g of ai/ha): 30% | inhibition at 30 g/ha ([7]; 504 h, LOLMU, 21 DAT, B3-1 30 g of ai/ha): 0% | inhibition at 30 g/ha (Zea mays (ZEAMX); [10]): 0% | inhibition at 90 g/ha (Zea mays (ZEAMX); [11]): 20% | inhibition at 30 g/ha (Setaria viridis (SETVI); SETVI, 21 DAT, B3-1 30 g of ai/ha): 0% | inhibition at 90 g/ha (Setaria viridis (SETVI); SETVI, 21 DAT, B3-1 90 g of ai/ha): 20%

CS(=O)(=O)c1ccc(C(=O)C2C(=O)CCCC2=O)c(Cl)c1COCC(F)(F)F [B3-3, 2-[2-chloro-4-(methylsulfonyl)-3-[(2,2,2-trifluoroethoxy)methyl]benzoyl]-1,3-cyclohexanedione]
inhibition at 30 g/ha ([6]; ALOMY, 21 DAT, B3-3 30 g of ai/ha): 40% | inhibition at 30 g/ha (Avena fatua (AVEFA); [12]): 0% | inhibition at 90 g/ha (Avena fatua (AVEFA); [13]): 0% | inhibition at 90 g/ha (Oryza sativa (ORYSA); 240 h, 10 DAT): 40% | inhibition at 90 g/ha (Oryza sativa (ORYSA); 504 h, 21 DAT): 30% | inhibition at 30 g/ha ([7]; 504 h, LOLMU, 21 DAT, B3-3 30 g of ai/ha): 20% | inhibition at 90 g/ha ([7]; 504 h, LOLMU, 21 DAT, B3-3 90 g of ai/ha): 50% | inhibition at 30 g/ha (Zea mays (ZEAMX); 240 h, 10 DAT, B3-3 30 g of ai/ha): 0% | inhibition at 90 g/ha (Zea mays (ZEAMX); 240 h, 10 DAT, B3-3 90 g of ai/ha): 0% | inhibition at 30 g/ha (Zea mays (ZEAMX); [12]): 0% | inhibition at 90 g/ha (Zea mays (ZEAMX); [13]): 0% | inhibition at 30 g/ha (Setaria viridis (SETVI); SETVI, 21 DAT, B3-3 30 g of ai/ha): 50%

CCSC(C)CC1CC(=O)C(/C(CC)=N/OC/C=C/Cl)=C(O)C1 (racemic) [B2-3, (E,E)-(±)-2-[1-[[(3-chloro-2-propenyl)oxy]imino]propyl]-5-[2-(ethylthio)propyl]-3-hydroxy-2-cyclohexen-1-one]
inhibition at 20 g/ha ([8]; 240 h): 40% | inhibition at 20 g/ha ([1]; 240 h): 0% | inhibition at 60 g/ha ([1]; 240 h): 0% | inhibition at 20 g/ha ([1]; 504 h): 0% | inhibition at 60 g/ha ([1]; 504 h): 0% | inhibition at 60 g/ha ([2]; 240 h): 0% | inhibition at 20 g/ha ([2]; 504 h): 0% | inhibition at 60 g/ha ([2]; 504 h): 0% | inhibition at 20 g/ha (Avena fatua (AVEFA); 504 h): 50% | inhibition at 20 g/ha (Oryza sativa (ORYSA); 240 h): 90% | inhibition at 20 g/ha (Oryza sativa (ORYSA); 504 h): 95% | inhibition at 20 g/ha [3]: 0% | inhibition at 60 g/ha [3]: 0% | inhibition at 20 g/ha [9]: 0% | inhibition at 60 g/ha [9]: 0% | inhibition at 20 g/ha ([4]; 240 h): 0% | inhibition at 60 g/ha ([4]; 240 h): 0% | inhibition at 20 g/ha ([4]; 504 h): 0% | inhibition at 60 g/ha ([4]; 504 h): 0% | inhibition at 20 g/ha (Viola tricolor (VIOTR); 240 h): 0% | inhibition at 60 g/ha (Viola tricolor (VIOTR); 240 h): 0% | inhibition at 20 g/ha (Viola tricolor (VIOTR); 504 h): 0% | inhibition at 60 g/ha (Viola tricolor (VIOTR); 504 h): 0% | inhibition at 20 g/ha ([5]; 240 h): 0% | inhibition at 60 g/ha ([5]; 240 h): 0% | inhibition at 20 g/ha ([5]; 504 h): 0% | inhibition at 60 g/ha ([5]; 504 h): 0% | inhibition at 60 g/ha (Zea mays (ZEAMX); 240 h): 80%
